Values quoted from earlier work in US5691307A, “O^6 -substituted guanine compositions and methods for depleting O^6” (The United States of America as represented by the …, priority 1994, dated 1997).
Entries after “also recorded” stand apart in the source; their conditions may differ.

Assays:
[1] = system: D341MED, a human medulloblastoma xenograft; settings: sc D341MED, cited from earlier work
melanoma cells (M19-mel) = settings: in vitro; cited from earlier work
tumor cells = settings: cited from earlier work
AGT = settings: cited from earlier work
[2] = system: malignant glioma cells (SF767); settings: SF767, in vitro; cited from earlier work
human tumor xenografts = settings: nude mice bearing human tumor xenografts; cited from earlier work
prostate tumors = settings: cited from earlier work
[3] = system: D245MG, a human glioma xenograft; settings: sc D245MG, cited from earlier work
[4] = system: AGT activity of D341MED xenograft tumors; settings: i.p., sc D341MED; cited from earlier work
[5] = athymic mice; cited from earlier work
[6] = system: intracranial (ic) xenografts of D341MED; settings: athymic mice; cited from earlier work
[7] = system: human colon cancer cells (HT29); settings: HT29, in vitro; cited from earlier work

For `Nc1nc(OCc2ccccc2)c2nc[nH]c2n1` [O^6 -benzylguanine], the “therapeutic effect, lower pretreatment dose of O^6-benzylguanine” value ([1]; with BCNU) is given as “significantly lesser therapeutic effect”, the “therapeutic effect, BCNU 1 hour after O^6-benzylguanine” value [1] is given as “significantly greater effect than was seen with either the same or a higher dose of BCNU alone” and the “therapeutic effect, BCNU delayed until 36 hours after O^6-benzylguanine” value [1] is given as “greatly reduced effect that was not significantly different than that produced by control or BCNU alone”. The “sensitivity to chloroethylating and methylating anti-tumor drugs” value (“sensitivity” for short) (melanoma cells (M19-mel)) was “increase the sensitivity”, the “enhancement in the cytotoxic response to alkylating agents” value (tumor cells) was “enhancement in the cytotoxic response to chemotherapeutic alkylating agents” and the “potency as AGT depleter” value (AGT) was “more potent”. For the same compound, the “AGT depletion (shown previously)” value (AGT; literature) was “effective in depleting AGT; also recorded: dramatic and rapid depletion of cellular alkyltransferase activity”, the “sensitivity” value [2] was “increase the sensitivity” and the “therapeutic effectiveness of chloroethylating nitrosoureas after pretreatment” value (human tumor xenografts) was “dramatic increase in the therapeutic effectiveness of chloroethylating nitrosoureas in vivo”. For the same compound, the “anti-tumor effect of BCNU after O^6-benzylguanine pretreatment” value (prostate tumors; prostate cancer) was “enhanced”, the “regression in tumor growth” value (prostate tumors; rats bearing prostate tumors, O^6-benzylguanine one hour prior to BCNU, or BCNU alone at equal dose) was “regression in tumor growth” and the “therapeutic effect, higher doses of O^6-benzylguanine” value ([3]; with BCNU) was “greater therapeutic effect”. The “therapeutic effect of combination regimens vs equitoxic dose of BCNU alone” value [3] was “None of the combination regimens, however, were as effective as an equitoxic dose of BCNU alone”, the “therapeutic effect, O^6-benzylguanine 1 hour prior to BCNU” value [3] was “significantly greater effect than was seen with BCNU treatment alone” and the “AGT activity of the tumors” value [4] was “undetectable”. The “time to undetectable tumor AGT activity” value [4] was no more than 1 h, the “time until which tumor AGT remained depleted” value [4] was 36 h and the “toxicity of BCNU after O^6-benzylguanine pretreatment” value [5] was “increased the toxicity of BCNU significantly”. The “survival, BCNU 1 hour after O^6-benzylguanine” value [6] was “significantly increased survival as compared to that of control, BCNU alone, O^6 -benzylguanine alone and O^6 -benzylguanine followed 36 hours later by BCNU” and the “sensitivity” value [7] was “increase the sensitivity”.
